# Test system: Escherichia coli
# Assay: Inhibition of type-1 pili-dependent biofilm formation in Escherichia coli […]
# Assay type: functional, organism-based
# Conditions: not given; call rule not given here
row,EC50,Compound
1,Not Active,COc1ccc2c(Cc3cc(=O)n4c(c3C3CC3)SC[C@H]4C(=O)O)cc(=O)oc2c1
2,Not Active,COc1ccc2c(Cc3cc(=O)n4c(c3-c3ccccc3)SC[C@H]4C(=O)O)cc(=O)oc2c1
3,Not Active,O=C([O-])[C@@H]1CSc2c(C3CC3)c(Cc3csc4ccccc34)cc(=O)n21.[Li+]
4,Not Active,O=C([O-])[C@@H]1CSc2c(C3CC3)c(Cn3nnc4ccccc43)cc(=O)n21.[Li+]
5,Not Active,CC(C)c1c(Cn2nnc3ccccc32)cc(=O)n2c1SC[C@H]2C(=O)[O-].[Li+]
6,Not Active,COc1ccc2c(Cc3cc(=O)n4c(c3-c3cccs3)SC[C@H]4C(=O)O)cc(=O)oc2c1
7,Not Active,Cc1cccc(OCc2cc(=O)n3c(c2-c2cccnc2)SC[C@H]3C(=O)[O-])c1C.[Li+]
8,Not Active,O=C([O-])[C@@H]1CSc2c(-c3cccnc3)c(Cn3nnc4ccccc43)cc(=O)n21.[Li+]
9,Not Active,O=C([O-])[C@@H]1CSc2c(-c3cccnc3)c(Cc3ccc4c(c3)OCO4)cc(=O)n21.[Li+]
10,Not Active,COc1c(Cc2csc3ccccc23)cc(=O)n2c1SC[C@H]2C(=O)[O-].[Li+]
11,Not Active,COc1c(Cc2cccc3ccccc23)cc(=O)n2c1SC[C@H]2C(=O)[O-].[Li+]
12,Not Active,COc1c(Cc2ccc3c(c2)OCO3)cc(=O)n2c1SC[C@H]2C(=O)O
13,Not Active,O=C([O-])[C@@H]1CSc2c(C3CC3)c(Cn3ccc4ccccc43)cc(=O)n21.[Li+]

# Same assay, conditions: Escherichia coli, UT189; read-out: EC50
row,EC50 [µM],Compound
1,250,O=C(O)[C@@H]1CSc2c(C3CC3)c(Cc3cccc4ccccc34)cc(=O)n21
2,40,Cc1cccc(CCc2cc(=O)n3c(c2-c2ccccc2)SC[C@H]3C(=O)O)c1
3,36,Cc1cccc(OCc2cc(=O)n3c(c2-c2ccccc2)SC[C@H]3C(=O)O)c1C
4,100,Cc1cccc(CCc2cc(=O)n3c(c2C(C)C)SC[C@H]3C(=O)O)c1
5,100,CC(C)c1c(Cc2cccc3ccccc23)cc(=O)n2c1SC[C@H]2C(=O)O
6,39,O=C(O)[C@@H]1CSc2c(-c3cccs3)c(Cc3cccc4ccccc34)cc(=O)n21
7,14,O=C(O)[C@@H]1CSc2c(-c3cccs3)c(COc3cccc4ccccc34)cc(=O)n21
8,27,Cc1cccc(OCc2cc(=O)n3c(c2-c2ccc4c(c2)OCO4)SC[C@H]3C(=O)O)c1C
9,67,O=C(O)[C@@H]1CSc2c(-c3ccc4c(c3)OCO4)c(Cc3csc4ccccc34)cc(=O)n21
10,21,O=C(O)[C@@H]1CSc2c(-c3ccc4c(c3)OCO4)c(COc3cccc4ccccc34)cc(=O)n21
11,74,Cc1cccc(CCc2cc(=O)n3c(c2-c2c[nH]c4ccccc24)SC[C@H]3C(=O)O)c1
12,12,O=C(O)[C@@H]1CSc2c(-c3c[nH]c4ccccc34)c(COc3cccc4ccccc34)cc(=O)n21
13,39,O=C(O)[C@@H]1CSc2c(-c3c[nH]c4ccccc34)c(Cc3ccc4c(c3)OCO4)cc(=O)n21
14,1.9,O=C(O)[C@@H]1CSc2c(-c3cccc(C(F)(F)F)c3)c(Cc3cccc(COc4cccc5ccccc45)c3)cc(=O)n21
15,1.4,O=C(O)[C@@H]1CSc2c(C3CC3)c(Cc3cccc(COc4cccc5ccccc45)c3)cc(=O)n21
16,40,O=C(O)[C@@H]1CSc2c(-c3ccccc3)c(Cc3cccc4ccccc34)cc(=O)n21
17,31,O=C(O)[C@@H]1CSc2c(-c3c[nH]c4ccccc34)c(Cc3cccc4ccccc34)cc(=O)n21
18,10,Cn1cc(-c2c(COc3cccc4ccccc34)cc(=O)n3c2SC[C@H]3C(=O)O)c2ccccc21
19,9,Cn1cc(-c2c(COc3cccc4ccccc34)cc(=O)n3c2SC[C@H]3C(=O)NS(C)(=O)=O)c2ccccc21
20,18,Cn1cc(-c2c(COc3cccc4ccccc34)cc(=O)n3c2OC[C@H]3C(=O)O)c2ccccc21
21,19,O=C(O)[C@@H]1COc2c(-c3ccc4c(c3)OCO4)c(COc3cccc4ccccc34)cc(=O)n21
22,117,O=C(O)[C@@H]1COc2c(-c3cccs3)c(Cc3cccc4ccccc34)cc(=O)n21

row,EC50 [µM],Compound
1,1.1,Cn1cc(-c2c(Cc3cccc(COc4cccc5ccccc45)c3)cc(=O)n3c2SC[C@H]3C(=O)O)c2ccccc21
2,3,O=C(O)[C@@H]1CSc2c(-c3cccc(C(F)(F)F)c3)c(Cc3c4ccccc4cc4ccccc34)cc(=O)n21
3,2.1,Cn1cc(-c2c(COc3cccc(Oc4ccccc4)c3)cc(=O)n3c2SC[C@H]3C(=O)O)c2ccccc21
4,4.3,O=C(O)[C@@H]1CSc2c(-c3cccc(C(F)(F)F)c3)c(COc3cccc(Oc4ccccc4)c3)cc(=O)n21
5,39,O=C(O)[C@@H]1CSc2c(C3CC3)c(COc3cccc(Oc4ccccc4)c3)cc(=O)n21
6,1,Cn1cc(-c2c(COc3cccc4ccccc34)cc(=O)n3c2S[C@H](c2ccccc2)[C@H]3C(=O)O)c2ccccc21
7,1.2,O=C(O)[C@@H]1[C@@H](c2ccccc2)Sc2c(-c3ccc4c(c3)OCO4)c(COc3cccc4ccccc34)cc(=O)n21
8,0.4,O=C(O)[C@@H]1[C@@H](c2ccccc2)Sc2c(-c3cccs3)c(Cc3cccc4ccccc34)cc(=O)n21
9,2.5,CO[C@H]1Sc2c(-c3cn(C)c4ccccc34)c(COc3cccc4ccccc34)cc(=O)n2[C@@H]1C(=O)O
10,30,CO[C@H]1Sc2c(-c3ccc4c(c3)OCO4)c(COc3cccc4ccccc34)cc(=O)n2[C@@H]1C(=O)O
11,92,CO[C@H]1Sc2c(-c3cccs3)c(Cc3cccc4ccccc34)cc(=O)n2[C@@H]1C(=O)O
12,18,Cn1cc(-c2c(COc3cccc4ccccc34)c(CN3CCOCC3)c(=O)n3c2SC[C@H]3C(=O)O)c2ccccc21
13,32,O=C(O)[C@@H]1CSc2c(-c3ccc4c(c3)OCO4)c(COc3cccc4ccccc34)c(CN3CCOCC3)c(=O)n21
14,88,O=C(O)[C@@H]1CSc2c(-c3cccs3)c(Cc3cccc4ccccc34)c(CN3CCOCC3)c(=O)n21
15,16,Cn1cc(-c2c(COc3cccc4ccccc34)c(CO)c(=O)n3c2SC[C@H]3C(=O)O)c2ccccc21
16,30,O=C(O)[C@@H]1CSc2c(-c3ccc4c(c3)OCO4)c(COc3cccc4ccccc34)c(CO)c(=O)n21
17,250,O=C(O)[C@@H]1CSc2c(-c3cccs3)c(Cc3cccc4ccccc34)c(CO)c(=O)n21
18,5,Cc1cccc(-c2sc3c(-c4cn(C)c5ccccc45)c(COc4cccc5ccccc45)c(CN4CCOCC4)c(=O)n3c2C(=O)O)c1
19,5,Cc1cccc(-c2sc3c(-c4ccc5c(c4)OCO5)c(COc4cccc5ccccc45)c(CN4CCOCC4)c(=O)n3c2C(=O)O)c1
20,86,Cc1cccc(-c2sc3c(-c4cn(C)c5ccccc45)c(COc4cccc5ccccc45)cc(=O)n3c2C(=O)O)c1
21,20,Cc1cccc(-c2sc3c(-c4ccc5c(c4)OCO5)c(COc4cccc5ccccc45)cc(=O)n3c2C(=O)O)c1

# Reference: ChEMBL document CHEMBL2034869, “Mapping pilicide anti-virulence effect in Escherichia coli, a comprehensive structure-activity study” (Bioorg Med Chem, 2012)
